Data on three compounds can be found in patent publication US10294212B2 (CURADEV PHARMA PRIVATE LTD., priority 2013, dated 2019).

The term IC50 denotes the midpoint of a concentration-inhibition curve.

For test [1], the target named is Human TDO (hTDO)-transfected CHO-K1 cells (Homo sapiens (Human), UniProt P48775). Kind of test: CHO-K1 cell based TDO assay. The following applies: hTDO cellular assay. The essentials:
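Stably hTDO-expressing CHO-K1 cells were exposed to compounds (typically 31 μM to 10 nM) in HBSS with 80 μM L-tryptophan for 2 h. TCA-treated supernatant was heated at 65° C for 15 min to convert N-formylkynurenine, then kynurenine was quantified by LC/MS/MS. IC50 came from percent inhibition versus DMSO control.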

The target of test [2] is IDO1 in HeLa cells (Homo sapiens (Human), UniProt P14902). Kind of test: HeLa cell based IDO1 assay (IFNγ-induced, KYN in supernatant). The essentials: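 HeLa cells were induced overnight with IFNγ (50 ng/mL), washed, then exposed to compound (typically 10 μM–1 nM) in HBSS with 80 μM L-tryptophan. Supernatant was TCA-treated at 65 °C for 15 min to convert N-formylkynurenine, and KYN was measured by HPLC-UV at 360 nm. IC50 came from nonlinear regression against a 1% DMSO control.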
Chain of IDO1 in HeLa cells (P14902 whole entry): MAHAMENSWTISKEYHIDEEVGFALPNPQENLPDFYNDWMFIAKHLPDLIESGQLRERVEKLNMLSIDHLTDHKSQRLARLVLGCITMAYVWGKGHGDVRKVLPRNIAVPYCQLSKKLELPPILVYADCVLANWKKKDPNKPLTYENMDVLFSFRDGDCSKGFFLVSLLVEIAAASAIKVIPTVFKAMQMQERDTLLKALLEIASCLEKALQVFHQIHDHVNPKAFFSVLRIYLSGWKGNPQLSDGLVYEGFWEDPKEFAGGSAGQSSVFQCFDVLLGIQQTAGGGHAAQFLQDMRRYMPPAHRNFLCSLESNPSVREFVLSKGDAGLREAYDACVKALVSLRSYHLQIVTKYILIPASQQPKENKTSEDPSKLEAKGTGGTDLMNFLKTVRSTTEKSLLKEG

Test [3] concerns CT-26 tumor cells. The experiment in a line: Antitumor activity in syngeneic CT26/Balb/C tumor model. The following applies: for reduction of tumor growth: vs control animals. It counts as in vivo, Balb/c mice. As for the experimental part: Tumor volume reduction by the test compounds was evaluated in a syngeneic CT26/Balb/C tumor model as described below. Balb/c mice were purchased from Vivo Bio Tech, Hyderabad, India, and housed in sterile conditions using an individually ventilated caging system manufactured by Citizen Industries Limited, Ahmedabad, India. Mice were quarantined for at least 7 days before experimentation.
Mouse colorectal tumor forming cells, CT-26 cells (ATCC, USA), were cultured in DMEM and 10% FBS medium supplemented with lx non-essential amino acid (HiMedia) in an incubator maintained at 37QC with 95% humidity and 5% CO2. One million (1×10^6) live syngeneic CT-26 cells suspended in 0.2 ml of […] were injected subcutaneously in the right flank of each Balb/c mouse (age 6-8 weeks, weight: about 18-20 g) on day 1 under anesthesia. Eight to ten mice were used per experimental group. Subcutaneous cells formed localized tumors. Animals were visually inspected twice a day. Tumor measurements were initiated 7 days post injection using Vernier calipers. Tumor sizes at day 7 ranged typically from 80-150 mm^3. Tumor dimensions were subsequently measured every 3 to 4 days and tumor volume was determined. Assuming tumors to be ellipsoid, tumor volume was calculated using the formula: V=(D×d×d)/2
Where D is longest diameter in mm, and d is shortest diameter in mm.
When the average tumor volume in the mice reached 100-120 mm^3, tumor bearing mice were randomized for treatment with either test compound or vehicle alone. Test compounds were formulated generally in normal saline comprising Polyethylene Glycol (PEG400), Propylene glycol (PG) and Dimethyl Acetamide (DACM) at pH 4.5-5.0 and dosed orally at ranges 40-75 mg/kg (dose volume—5 mL/kg) twice a day. Solutions of the compounds were prepared immediately before dosing the animals. In general, tumor volume was measured at various times post-dosing from day 1 to day 34.
A non-limiting example is provided. Tumor bearing mice were dosed orally twice a day at 40 mg/kg body weight with either vehicle control or test compound 2 formulated in 30% Polyethylene Glycol (PEG-400), 20% Propylene glycol (PG) in normal saline. Tumors were measured and tumor volumes were determined at 1, 4, 6, 9, 11, and 14 days after the first dose as described above. Animals were sacrificed on day 14. Tumor and blood samples were harvested for further analysis. Just prior to animal sacrifice, blood was drawn retro-orbitally into a tube containing 0.2% EDTA for plasma collection. The harvested tumors were weighed and snap frozen in liquid nitrogen immediately. Plasma KYN concentrations are measured for pharmacokinetic analysis using LC/MS/MS using an API4000 mass spectrometer (Applied Biosystems) coupled to a Shimadzu Prominence LC system fitted with a C18 column.

Chain of Human TDO (hTDO)-transfected CHO-K1 cells (P48775 whole entry): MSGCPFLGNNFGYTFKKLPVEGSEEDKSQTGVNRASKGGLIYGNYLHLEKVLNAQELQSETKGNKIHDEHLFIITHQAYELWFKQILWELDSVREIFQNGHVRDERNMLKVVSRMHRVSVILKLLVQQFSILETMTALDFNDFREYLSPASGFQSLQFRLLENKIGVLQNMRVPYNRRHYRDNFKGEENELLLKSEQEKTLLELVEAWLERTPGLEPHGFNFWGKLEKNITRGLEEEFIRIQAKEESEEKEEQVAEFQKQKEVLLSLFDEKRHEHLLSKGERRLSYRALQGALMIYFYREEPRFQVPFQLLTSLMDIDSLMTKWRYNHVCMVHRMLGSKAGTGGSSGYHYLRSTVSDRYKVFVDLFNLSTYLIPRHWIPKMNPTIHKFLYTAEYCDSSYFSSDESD

Regarding `Nc1oc2cnccc2c1Nc1ccc(F)c(Cl)c1` [Compound 2, N^3-(3-Chloro-4-fluoro-phenyl)-furo[2,3-c]pyridine-2,3-diamine], the IC50 in test [1] was 0.5 to 2 µM; in test [2], less than 0.2 µM. In addition, in test [3] (40 mg/kg oral BID, over 14 days, vs vehicle), the tumor growth entry is recorded as “significantly decreased tumor growth”.

Consider `Nc1oc2c(-c3ccncc3)nccc2c1Nc1ccc(F)c(Cl)c1` [Compound 97, N^3-(3-Chloro-4-fluorophenyl)-7-(pyridin-4-yl)furo[2,3-c]pyridine-2,3-diamine], for which the IC50 in test [1] was less than 0.5 µM; in test [2] it was less than 0.2 µM. The “reduction of tumor growth” value in test [3] (75 mg/kg oral BID) is 26%-38.

For the compound `Nc1oc2c(-c3ccncc3)nccc2c1Nc1ccc(F)c(F)c1` [Compound 184, N^3-(3,4-difluorophenyl)-7-(pyridin-4-yl)furo[2,3-c]pyridine-2,3-diamine], the IC50 in test [1] is less than 0.5 µM; in test [2], less than 0.2 µM. Moreover, the “reduction of tumor growth” value in test [3] (50 mg/kg oral BID) is 26%-38.
